{
  "source": "patent US7641897B2",
  "about": "“Feeder layer and serum independent embryonic stem cells” (The Board of Trustees of the Leland Stanford Junior …, priority 2004, dated 2010)",
  "molecules": {"B1": {"name": "BMP: bone morphogenic protein; BMP4 used for stimulation of ES cells (protein, UniProt P12644 293-408, looked up)", "Bone morphogenetic protein 4": "SPKHHSQRARKKNKNCRRHSLYVDFSDVGWNDWIVAPPGYQAFYCHGDCPFPLADHLNSTNHAIVQTLVNSVNSSIPKACCVPTELSAISMLYLDEYDKVVLKNYQEMVVEGCGCR"}},
  "assay_type_in_all_cases": "cell-based, murine",
  "key": {"[1]": {"test_system": "parental ES cell line (D3 ES cells)", "assay": "Self-renewal, differentiation and growth of ES cells in serum- and feeder-free culture with LIF and MAP kinase inhibitors", "description": "(§1) FIG. 5A-5C. Effect of MAPK inhibitors on ES cell self-renewal. (A) Phase contrast image of parental ES cells cultured for 8 days (left), Bcl-2 ES cells cultured for 14 days (middle), and parental ES cells cultured with PD98059 for 14 days (right) in serum- and feeder-free conditions. (B) Growth curve of Bcl-2 ES cells (square) and parental ES cells cultured with 12.5 μM of PD98059 (circle) in serum- and feeder-free conditions. (C) Colony formation activity of parental (p) ES cells cultured without (Non) or with PD98059, and Bcl-2 ES cells at low cell density. Cultures were initiated with 200 cells per well (12 well-plate) and colonies were enumerated 7 days later.\n(§2) Cell culture. D3 ES cells (Doetschman et al. (1985) J. Embryol. Exp. Morphol. 87:27-45) were maintained as previously described (Yamane et al. (1997) Blood 90:3516-3523), and clones expressing human Bcl-2 were established by co-transfecting parental D3 ES cells with the human Bcl2-IRES-EGFP transgene under control of the CAG promoter, and a puromycin resistance gene cassette. Bcl-2 ES cell clones were selected and expanded in the presence of puromycin. For serum-free cultures, ES cells are maintained in X-VIVO 15 (Cambrex) supplemented with 2 mM GlutaMax-1 (Gibco), 0.1 mM 2-mercaptoethanol, 1,000 U/mL ESGRO (Chemicon International), 100 U/mL penicillin (Gibco), and […] streptomycin (Gibco) on gelatin-coated dishes. Alternatively, IMDM/F12 (1:1) (Gibco) supplemented with 2 mM GlutaMax-1, 0.1 mM 2-mercaptoethanol, 0.1% polyvinyl alcohol (Sigma), 1× Insulin-Transferin-Selenium-X (Gibco), 1,000 U/mL ESGRO, 100 U/mL penicillin, and 100 mg streptomycin was used where indicated. Cells were dissociated with Cell Dissociation Buffer (Enzyme-Free, Hanks'-based, Gibco).\nMAP kinase inhibitors. 1 μM SB203580 (Calbiochem) and 12.5 μM PD98059 (Calbiochem) were used as described (Qi et al. (2004) Proc. Natl. Acad. Sci USA 101, 6027-6032; Burdon et al. (1999) Dev. Biol. 210, 30-43)."}, "parental ES cells": {"test_system": "parental ES cells", "assay": "Colony formation activity at low cell density in serum- and feeder-free conditions", "conditions": "200 cells per well (12 well-plate), colonies enumerated 7 days later (FIG. 5C)", "description": "as §1\nas §2, with “Alternatively, IMDM/F12 (1:1) (Gibco) supplemented with 2 mM GlutaMax-1, 0.1 mM 2-mercaptoethanol, 0.1% polyvinyl alcohol (Sigma), 1× Insulin-Transferin-Selenium-X (Gibco), 1,000 U/mL ESGRO, 100 U/mL penicillin, and 100 mg streptomycin was used where indicated. Cells were dissociated with Cell Dissociation Buffer (Enzyme-Free, Hanks'-based, Gibco).” left out"}, "[2]": {"test_system": "parental cell line (D3 ES cells)", "assay": "Viability of the parental cell line in serum- and feeder-free conditions with BMP", "conditions": "addition of BMP", "text": "as §2"}, "[3]": {"test_system": "Bcl-2, Bcl-xL, Mcl-1, Bax", "assay": "Western blot analysis of Bcl-2 family members after BMP stimulation", "conditions": "parental ES cells, serum- and feeder-free, treated with BMP4 for 6 hours (FIG. 4B)", "description": "FIG. 4A-4B. Western blot analysis for Smad proteins and Bcl-2 family members. (A) Cell lysates of parental cells cultured in conventional conditions with serum [p(serum)], a Bcl-2 clone in serum and feeder-free conditions untreated (Bcl-2), or treated with BMP4 for 90 minutes (Bcl-2+BMP4) were analyzed for the presence of phospho-Smad1/5/8 by western blotting (upper panel). The same membrane was stripped and reprobed with anti-actin antibody (lower panel). The band denoted by an asterisk is a product of non-specific staining. (B) Western blot analysis of Bcl-2 family members was performed for parental ES cells in conventional conditions with serum (serum), and for parental ES cells in serum- and feeder-free conditions without (Non) or treated with BMP4 for 6 hours (BMP4).\nWestern blots. Cells were lysed in 50 mM Tris-Cl (pH7.5)/150 mM NaCl/1% Triton-X/1% protease inhibitor cocktail set III (Calbiochem)/1 mM EDTA/1 mM Na3Vo4/1 mM NaF and proteins were separated by SDS-PAGE under denaturing conditions and transferred to Immobilon-P membrane (Miilipore). After blocking with 5% milk, the membrane was incubated with primary antibodies against phospho-Smad1/5/8 (Cell Signaling Technology), actin (Sigma), Bcl-2 (Dako), Bcl-xL (BD Bioscience), Mcl-1 (ABGENT), or Bax (BD Bioscience), washed, and then incubated with HRP-conjugated secondary antibodies. […]"}},
  "data": [
    {"molecule": "COc1cccc(-c2cc(=O)c3ccccc3o2)c1N", "note": "[PD98059]", "values": [
      {"measurement": "growth speed of parental cell line with inhibitor compared with Bcl-2 ES cells", "setting": "[1]; 12.5 μM PD98059, serum- and feeder-free (FIG. 5B)", "value": "somewhat faster"},
      {"measurement": "differentiated cells which appeared during culture", "setting": "[1]; parental ES cell line, 12.5 μM PD98059, serum- and feeder-free, 14 days (FIG. 5A)", "value": "dramatically reduced"},
      {"measurement": "continuous growth in serum- and feeder-free conditions in the presence of LIF without Bcl-2", "setting": "[1]; parental ES cells, 12.5 μM PD98059, crisis upon continued passaging (FIG. 5B)", "value": "supported the continuous growth"},
      {"measurement": "colony formation at low cell density", "setting": "parental ES cells", "value": "could never support the colony formation"}
    ]},
    {"molecule": "C[S+]([O-])c1ccc(-c2nc(-c3ccncc3)c(-c3ccc(F)cc3)[nH]2)cc1", "note": "(stereo not shown) [SB 203580]", "values": [
      {"measurement": "effect on self-renewal and differentiation of ES cells", "setting": "[1]; 1 μM SB203580, serum- and feeder-free conditions", "value": "did not show any effect"}
    ]},
    {"molecule": "B1", "values": [
      {"measurement": "viability of the parental cell line", "setting": "[2]", "value": "did not improve viability"},
      {"measurement": "expression of Bcl-2, Bcl-xL, Mcl-1 anti-apoptotic proteins", "setting": "[3]", "value": "neither Bcl-2, Bcl-xL, or Mcl-1 anti-apoptotic proteins are up-regulated"}
    ]}
  ]
}
